Reference: patent publication US12319652B2, “Salts and solid forms of (R)-1-(5-methoxy-1H-indol-1-yl)-N,N-dimethylpropan-2-amine” (priority 2021, dated 2025)

How the values were obtained:
[1] = format: physicochemical; details: 40° C./75% RH, 10-day time point
Experimental: Equilibrium Humidity Evaluation (40° C./75% RH for 10 Days)
100 mg portions of compound 1 salts (for inputs see table below) were placed in the relevant open vials. The powders were finely divided and distributed evenly over the base of the vial, such that equal material coverage across the panel was observed. These samples were then maintained 40°C. under 75% RH. The samples were sub-sampled at intervals of 5 and 10 days and analysed by ^1H NMR, HPLC, XRPD, DSC, TGA and PLM, for evidence of phase change or chemical degradation (FIG. 269-297).

[2] = Solubility determinations in SIF buffers (FaSSIF, FeSSIF, FaSSGF); format: physicochemical
Experimental: At this stage ca. 1 g of each front-runner salt form was prepared. Salt forms that offered significant solubility and stability advantages over the non-ionized API were prioritized. […] Scale Up
The solubility of the salts below was determined in FaSSIF, FeSSIF and FaSSGF by reference to the calibration curve of amorphous compound 1.
Separate portions of compound 1 were weighed out into aluminum boats and were charged to the relevant volumetric flasks. Solutions were made to volume with 1 to 1 (v/v) acetonitrile/purified water to give calibrants of known API concentrations and analyzed by HPLC, suitable to determine the concentration of compound 1 free base in the SIF buffer solubility study.
Each sample (150 mg) was suspended in the relevant SIF buffer (5.0 ml), to give a concentration of 30 mg/ml and maintain at 37° C. for 24 h. The pH was adjusted using 1 M HCl or 1 M NaOH, to ensure that the suspension remains in range.
Sample (1 ml) of the well-stirred representative suspensions was obtained at 1 h, 3 h, 6 h and 24 h and the pH was recorded. The pH of the bulk suspension was re-adjusted when necessary. The obtained sample from each vial was centrifuged, and the supernatant was analysed by HPLC (note, the analyte was diluted, when outside of the calibration range); XRPD analysis was performed on the wet sample pellet for evidence of form change, as well as on the oven-dried pellet (undervacuum at 40° C.).

[3] = Dynamic vapor sorption (DVS); format: physicochemical; details: for DVS isotherm type / hygroscopicity: 0 to 90 to 0% RH; for DVS desorption behaviour (hysteresis): during desorption
Experimental: There are two main methods to use, one is by time where the equilibration is given by a fixed time, i.e., 1 hour per step and is appropriate for an unknown phase. The second, is by mass per time unit (dm/dt) of 0.002%/min; that is when the difference in weight is less than 0.002%, the instrument moves onto the next step. For unknown hygroscopicity, the method by time is indicated because it gives an idea of water affinity without wasting much time. Ideally the analyses are repeated using the mass equilibration method to confirm. By experience for hygroscopic samples, the analysis can continue for days. For non-hygroscopic samples the difference between the two methods may not be significant.
Consequently, amorphous batch 1 was analyzed by the fixed time method and once compound 1 fumarate crystalline polymorphic Form A was generated the analyses was repeated as mass per unit time equilibrated @dm/dt ([…]) and is given below (refer to FIG. 12).
(§1) The moisture sorption properties of the feed API were analysed by DVS Intrinsic instrument (Surface Measurement System). Approximately 20 to 50 mg of API was weighed onto an aluminium pan and loaded into the instrument equilibrated at 25° C. The sample was equilibrated under a dry atmosphere (0% relative humidity) for 60 minutes, before increasing the humidity from 0% to 30% at 5%4 step increment and from 30% to 90% at 10% step increment. A desorption cycle was also applied from 90% to 30% (10% step decrement) and from 30% to 0% (5% step decrement). A rate of change in mass per time unit (dm/dt) of 0.002%/min was set as the equilibrium parameter. Kinetic and isotherm graphs were calculated.
Specimens were equilibrated at 0% RH for 60 min, prior to DVS analyses (stepped increment % RH up to 90% RH and stepped decrement % RH down to 0% RH.
as §1, with “5%” for “5%4”

SMILES	Change of purity profile / CP [1]	DVS isotherm type / hygroscopicity [3]	DVS 0 to 90 to 0% RH (dm/dt <0.002%) ([3]; 5.0% RH, desorption) [%]	DVS 0 to 90 to 0% RH (dm/dt <0.002%) ([3]; 5.0% RH, sorption) [%]	DVS 0 to 90 to 0% RH (dm/dt <0.002%) ([3]; 10.0% RH, desorption) [%]	DVS 0 to 90 to 0% RH (dm/dt <0.002%) ([3]; 10.0% RH, sorption) [%]	DVS 0 to 90 to 0% RH (dm/dt <0.002%) ([3]; 15.0% RH, desorption) [%]	DVS 0 to 90 to 0% RH (dm/dt <0.002%) ([3]; 15.0% RH, sorption) [%]	DVS 0 to 90 to 0% RH (dm/dt <0.002%) ([3]; 20.0% RH, desorption) [%]	DVS 0 to 90 to 0% RH (dm/dt <0.002%) ([3]; 20.0% RH, sorption) [%]	DVS 0 to 90 to 0% RH (dm/dt <0.002%) ([3]; 25.0% RH, desorption) [%]	DVS 0 to 90 to 0% RH (dm/dt <0.002%) ([3]; 25.0% RH, sorption) [%]	DVS 0 to 90 to 0% RH (dm/dt <0.002%) ([3]; 30.0% RH, desorption) [%]	DVS 0 to 90 to 0% RH (dm/dt <0.002%) ([3]; 30.0% RH, sorption) [%]	DVS 0 to 90 to 0% RH (dm/dt <0.002%) ([3]; 40.0% RH, desorption) [%]	DVS 0 to 90 to 0% RH (dm/dt <0.002%) ([3]; 40.0% RH, sorption) [%]	DVS 0 to 90 to 0% RH (dm/dt <0.002%) ([3]; 50.0% RH, desorption) [%]	DVS 0 to 90 to 0% RH (dm/dt <0.002%) ([3]; 50.0% RH, sorption) [%]	DVS 0 to 90 to 0% RH (dm/dt <0.002%) ([3]; 60.0% RH, desorption) [%]	DVS 0 to 90 to 0% RH (dm/dt <0.002%) ([3]; 60.0% RH, sorption) [%]	further results
COc1ccc2c(ccn2C[C@@H](C)N(C)C)c1.O=C(O)c1ccccc1 [compound 1 benzoate]	little changed	hygroscopic	-0.39	0.02	−0.34	0.04	-0.29	0.06	−0.25	0.10	−0.19	0.10	-0.16	0.13	−0.19	0.19	0.20	0.30	0.41	0.42	Disproportionation in FaSSGF ([2]; 1H NMR of isolated residue, non-ionised benzoic acid present): disproportionated; Observation upon pH adjustment from 4.17 to 1.63 ([2]; SIF buffer solubility study): solid was observed; DVS weight gain at 70% RH ([3]; 70% RH (printed 70° RH in Example 8)): ca. 0.6 % w/w; DVS 0 to 90 to 0% RH (dm/dt <0.002%) ([3]; 70.0% RH, desorption): 0.61%; DVS 0 to 90 to 0% RH (dm/dt <0.002%) ([3]; 70.0% RH, sorption): 0.58%; DVS 0 to 90 to 0% RH (dm/dt <0.002%) ([3]; 80.0% RH, desorption): 0.92%; DVS 0 to 90 to 0% RH (dm/dt <0.002%) ([3]; 80.0% RH, sorption): 0.89%; DVS 0 to 90 to 0% RH (dm/dt <0.002%) ([3]; 90.0% RH, desorption): 1.52%; DVS 0 to 90 to 0% RH (dm/dt <0.002%) ([3]; 90.0% RH, sorption): 1.52%; DVS desorption behaviour (hysteresis) [3]: desorption profile was unusual and ended beneath unity
COc1ccc2c(ccn2C[C@@H](C)N(C)C)c1.O=C(O)/C=C\C(=O)O [compound 1 maleate]	reduction in CP	hygroscopic	−0.03	0.02	0.03	0.05	0.09	0.08	0.15	0.11	0.22	0.14	0.30	0.18	0.48	0.26	0.70	0.42	1.00	0.86	Solubility in SIF buffers ([2]; FaSSIF, FeSSIF and FaSSGF, 37° C., 24 h, concentration tested 30 mg/ml): freely soluble; DVS isotherm uptake [3]: ca. 3.5 % w/w; DVS 0 to 90 to 0% RH (dm/dt <0.002%) ([3]; 0.0% RH, desorption): −0.07%; DVS 0 to 90 to 0% RH (dm/dt <0.002%) ([3]; 0.0% RH, sorption): DVS 0 to 90 to 0% RH (dm/dt <0.002%): 0.0 (0.00%), 5.0; DVS 0 to 90 to 0% RH (dm/dt <0.002%) ([3]; 70.0% RH, desorption): 1.40%; DVS 0 to 90 to 0% RH (dm/dt <0.002%) ([3]; 70.0% RH, sorption): 1.38%; DVS 0 to 90 to 0% RH (dm/dt <0.002%) ([3]; 80.0% RH, desorption): 2.03%; DVS 0 to 90 to 0% RH (dm/dt <0.002%) ([3]; 80.0% RH, sorption): 2.00%; DVS 0 to 90 to 0% RH (dm/dt <0.002%) ([3]; 90.0% RH, desorption): 3.44%; DVS 0 to 90 to 0% RH (dm/dt <0.002%) ([3]; 90.0% RH, sorption): 3.44%; DVS desorption behaviour (hysteresis) [3]: small hysteresis
